Consider 17 compounds from patent US11306092B2, “Amino indole compounds useful as TLR inhibitors” (BRISTOL-MYERS SQUIBB COMPANY, priority 2017, dated 2022).

One assay addresses T1, human TLR9 (Homo sapiens, UniProt Q9NR96).
T1 construct: host or cells: HEK-Blue cells
T1 sequence (Q9NR96 26-1032): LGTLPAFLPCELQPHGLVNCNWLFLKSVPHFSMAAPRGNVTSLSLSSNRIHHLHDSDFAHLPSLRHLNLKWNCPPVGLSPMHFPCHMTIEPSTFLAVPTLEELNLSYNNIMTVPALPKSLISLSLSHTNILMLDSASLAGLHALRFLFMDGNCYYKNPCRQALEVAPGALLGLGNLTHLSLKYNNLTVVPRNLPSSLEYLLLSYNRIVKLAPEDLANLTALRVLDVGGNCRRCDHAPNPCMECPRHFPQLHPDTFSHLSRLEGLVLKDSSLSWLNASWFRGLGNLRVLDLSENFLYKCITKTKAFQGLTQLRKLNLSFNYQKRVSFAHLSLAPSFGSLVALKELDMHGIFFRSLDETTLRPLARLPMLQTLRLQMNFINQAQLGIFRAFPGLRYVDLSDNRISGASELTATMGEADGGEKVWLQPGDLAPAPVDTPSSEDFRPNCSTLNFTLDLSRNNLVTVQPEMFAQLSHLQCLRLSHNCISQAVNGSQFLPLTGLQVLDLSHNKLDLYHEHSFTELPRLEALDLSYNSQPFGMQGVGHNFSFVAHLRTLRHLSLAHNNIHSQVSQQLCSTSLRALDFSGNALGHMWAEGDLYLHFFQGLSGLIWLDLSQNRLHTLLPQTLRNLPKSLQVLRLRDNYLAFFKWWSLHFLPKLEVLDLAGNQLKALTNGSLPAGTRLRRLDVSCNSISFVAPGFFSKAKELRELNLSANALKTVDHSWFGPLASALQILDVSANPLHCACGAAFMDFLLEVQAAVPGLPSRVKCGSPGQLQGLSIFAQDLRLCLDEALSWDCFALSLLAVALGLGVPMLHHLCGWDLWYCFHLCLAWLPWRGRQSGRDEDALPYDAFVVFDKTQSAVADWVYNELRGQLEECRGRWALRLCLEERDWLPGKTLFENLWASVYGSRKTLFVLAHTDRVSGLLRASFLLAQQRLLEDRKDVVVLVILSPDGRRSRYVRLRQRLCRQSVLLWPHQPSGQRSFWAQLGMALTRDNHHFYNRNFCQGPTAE
The assay can be described thus: TLR9 inhibition reporter assay (HEK-Blue SEAP reporter). To be noted: HEK-Blue cells overexpressing human TLR9; ODN2006 5 nM; 22 hour incubation. It counts as cell-based. On the procedure:
(§1) TLR7/8/9 Inhibition Reporter Assays
(§2) HEK-Blue™-cells (Invivogen) overexpressing human TLR7, TLR8 or TLR9 receptors were used for screening inhibitors of these receptors using an inducible SEAP (secreted embryonic alkaline phosphatase) reporter gene under the control of the IFN-β minimal promoter fused to five NF-κB and AP-1-binding sites. Briefly, cells are seeded into Greiner 384 well plates (15000 cells per well for TLR7, 20,000 for TLR8 and 25,000 for TLR9) and then treated with test compounds in DMSO to yield a final dose response concentration range of 0.05 nM-50 μM. After a 30 minute compound pre-treatment at room temperature, the cells are then stimulated with a TLR7 ligand (gardiquimod at a final concentration of 7.5 μM), TLR8 ligand (R848 at a final concentration of 15.9 μM) or TLR9 ligand (ODN2006 at a final concentration of 5 nM) to activate NF-κB and AP-1 which induce the production of SEAP. After a 22 hour incubation at 37° C., 5% CO2, SEAP levels are determined with the addition of HEK-Blue™ Detection reagent (Invivogen), a cell culture medium that allows for detection of SEAP, according to manufacturer's specifications. The percent inhibition is determined as the % reduction in the HEK-Blue signal present in wells treated with agonist plus DMSO alone compared to wells treated with a known inhibitor.
In general terms: Reporter assays use an easily measured gene product as a stand-in for the process of interest.

Another assay addresses T2, human TLR7 (Homo sapiens, UniProt Q9NYK1).
T2 construct: host or cells: HEK-Blue cells
T2 sequence (Q9NYK1 27-1049): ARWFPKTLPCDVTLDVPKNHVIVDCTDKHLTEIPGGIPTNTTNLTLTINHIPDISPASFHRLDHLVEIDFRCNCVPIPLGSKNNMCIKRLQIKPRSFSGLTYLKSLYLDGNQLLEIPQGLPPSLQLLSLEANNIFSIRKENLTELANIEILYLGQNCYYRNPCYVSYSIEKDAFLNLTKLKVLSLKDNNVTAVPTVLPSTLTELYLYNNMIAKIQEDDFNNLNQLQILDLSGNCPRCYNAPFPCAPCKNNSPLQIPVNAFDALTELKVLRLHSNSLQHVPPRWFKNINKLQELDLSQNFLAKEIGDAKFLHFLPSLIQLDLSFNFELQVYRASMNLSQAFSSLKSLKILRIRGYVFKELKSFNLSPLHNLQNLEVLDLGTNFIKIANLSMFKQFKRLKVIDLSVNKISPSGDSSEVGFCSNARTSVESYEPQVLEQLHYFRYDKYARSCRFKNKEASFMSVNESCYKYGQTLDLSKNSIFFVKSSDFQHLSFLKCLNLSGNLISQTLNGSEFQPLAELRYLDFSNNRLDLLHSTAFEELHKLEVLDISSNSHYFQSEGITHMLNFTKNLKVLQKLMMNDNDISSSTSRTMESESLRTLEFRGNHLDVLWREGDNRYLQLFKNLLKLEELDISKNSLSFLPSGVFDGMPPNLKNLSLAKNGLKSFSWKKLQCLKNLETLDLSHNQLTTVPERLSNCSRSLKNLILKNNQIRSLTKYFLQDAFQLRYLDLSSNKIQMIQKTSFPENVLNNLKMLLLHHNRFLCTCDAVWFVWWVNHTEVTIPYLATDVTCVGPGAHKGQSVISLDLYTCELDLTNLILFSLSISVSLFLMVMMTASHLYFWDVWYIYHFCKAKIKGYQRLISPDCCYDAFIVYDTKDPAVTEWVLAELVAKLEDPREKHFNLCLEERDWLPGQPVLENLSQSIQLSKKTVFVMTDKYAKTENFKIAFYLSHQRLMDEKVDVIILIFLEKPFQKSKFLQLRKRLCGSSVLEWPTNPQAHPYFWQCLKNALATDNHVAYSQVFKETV
Description: TLR7 inhibition reporter assay (HEK-Blue SEAP reporter). It counts as cell-based. Conditions: HEK-Blue cells overexpressing human TLR7; gardiquimod 7.5 μM; 22 hour incubation. The procedure:
as §1, §2

As a reminder, the IC50 is the point on the concentration scale where inhibition reaches its midpoint. Read a low IC50 as greater potency in that assay.

As to `CNCCNC1CCC(Nc2ccc3[nH]c(-c4ccc(OC)c(OC)c4)c(C(C)C)c3c2)CC1` (single isomer, unassigned) [Example 31, N1-(2-(3,4-dimethoxyphenyl)-3-isopropyl-1H-indol-5-yl)-N4-(2-(methylamino)ethyl)cyclohexane-1,4-diamine], the 50% inhibitory concentration (IC50) against human TLR9 is 1440 nM; on human TLR7, 1130 nM.
For `COc1ccc(-c2[nH]c3ccc(NC4CCC(NC5CCN(C)CC5)CC4)cc3c2C(C)C)cc1OC` (single isomer, unassigned) [Example 41, N1-(2-(3,4-dimethoxyphenyl)-3-isopropyl-1H-indol-5-yl)-N4-(1-methylpiperidin-4-yl)cyclohexane-1,4-diamine] the same measures were 991 nM and 221 nM.
Take `COc1ccc(-c2[nH]c3ccc(NC4CCC(N5CCN(C(C)=O)CC5)CC4)cc3c2C(C)C)cc1OC` (single isomer, unassigned) [Example 44, 1-(4-(4-((2-(3,4-dimethoxyphenyl)-3-isopropyl-1H-indol-5-yl)amino)cyclohexyl)piperazin-1-yl)ethan-1-one]: the IC50 at human TLR9 came out at 4070 nM; against human TLR7 it was 375 nM.
With `COc1ccc(-c2[nH]c3ccc(NC4CCC(N5CCN(C(C)=O)CC5)CC4)cc3c2C(C)C)cc1OC` (single isomer, unassigned) [Example 45, 1-(4-(4-((2-(3,4-dimethoxyphenyl)-3-isopropyl-1H-indol-5-yl)amino)cyclohexyl)piperazin-1-yl)ethan-1-one], the IC50 worked out at 1270 nM against human TLR9 and 349 nM at human TLR7.
Take `CCc1c(-c2ccc(OC)c(OC)c2)[nH]c2ccc(N(CC)C3CCN(C4CCN(C)CC4)CC3)cc12` [Example 28, 2-(3,4-dimethoxyphenyl)-N,3-diethyl-N-(1′-methyl-1,4′-bipiperidin-4-yl)-1H-indol-5-amine]: the IC50 at human TLR9 was found to be 627 nM; against human TLR7, 2220 nM.
Consider `COc1ccc(-c2[nH]c3ccc(NC4CCC(NCCN(C)C)CC4)cc3c2C(C)C)cc1OC` (stereo not shown) [Example 32, N1-(2-(3,4-dimethoxyphenyl)-3-isopropyl-1H-indol-5-yl)-N4-(2-(dimethylamino)ethyl)cyclohexane-1,4-diamine], for which the figures for the IC50 on human TLR9 and against human TLR7 were 610 nM and 191 nM, respectively.
As for `COc1ccc(-c2[nH]c3ccc(NC4CCC(NCCN(C)C)CC4)cc3c2C(C)C)cc1OC` (stereo not shown) [Example 33, N1-(2-(3,4-dimethoxyphenyl)-3-isopropyl-1H-indol-5-yl)-N4-(2-(dimethylamino)ethyl)cyclohexane-1,4-diamine], the IC50 turned out to be 650 nM at human TLR9 and 136 nM at human TLR7.
Consider `COc1ccc(-c2[nH]c3ccc(NC4CCC(N5CCN(C)CC5)CC4)cc3c2C(C)C)cc1OC` (stereo not shown) [Example 34, 2-(3,4-dimethoxyphenyl)-3-isopropyl-N-(4-(4-methylpiperazin-1-yl)cyclohexyl)-1H-indol-5-amine], for which the IC50 against human TLR9 was found to be 769 nM; against human TLR7, 281 nM.
For `COc1ccc(-c2[nH]c3ccc(NC4CCC(NCCCN(C)C)CC4)cc3c2C(C)C)cc1OC` (stereo not shown) [Example 36, N1-(2-(3,4-dimethoxyphenyl)-3-isopropyl-1H-indol-5-yl)-N4-(3-(dimethylamino)propyl) cyclohexane-1,4-diamine] the same measures were 583 nM and 225 nM.
The corresponding values for `COc1ccc(-c2[nH]c3ccc(NC4CCC(NCCCN(C)C)CC4)cc3c2C(C)C)cc1OC` (stereo not shown) [Example 37, N1-(2-(3,4-dimethoxyphenyl)-3-isopropyl-1H-indol-5-yl)-N4-(3-(dimethylamino)propyl) cyclohexane-1,4-diamine] are 1430 nM and 171 nM.
On to `CCN1CCN(C2CCC(Nc3ccc4[nH]c(-c5ccc(OC)c(OC)c5)c(C(C)C)c4c3)CC2)CC1` (stereo not shown) [Example 38, 2-(3,4-dimethoxyphenyl)-N-(4-(4-ethylpiperazin-1-yl)cyclohexyl)-3-isopropyl-1H-indol-5-amine], for which the values for the IC50 against human TLR9 and on human TLR7 were 716 nM and 450 nM, respectively.
`CCN1CCN(C2CCC(Nc3ccc4[nH]c(-c5ccc(OC)c(OC)c5)c(C(C)C)c4c3)CC2)CC1` (stereo not shown) [Example 39, 2-(3,4-dimethoxyphenyl)-N-(4-(4-ethylpiperazin-1-yl)cyclohexyl)-3-isopropyl-1H-indol-5-amine]: the IC50 at human TLR9 was 1230 nM; on human TLR7, 242 nM.
Consider `COc1ccc(-c2[nH]c3ccc(NC4CCC(N(C)CCCN(C)C)CC4)cc3c2C(C)C)cc1OC` (stereo not shown) [Example 42, N1-(2-(3,4-dimethoxyphenyl)-3-isopropyl-1H-indol-5-yl)-N4-(3-(dimethylamino)propyl)-N4-methylcyclohexane-1,4-diamine], for which the IC50 against human TLR9 worked out at 1010 nM; against human TLR7 it was 106 nM.
With `COc1ccc(-c2[nH]c3ccc(NC4CCC(N(C)CCCN(C)C)CC4)cc3c2C(C)C)cc1OC` (stereo not shown) [Example 43, N1-(2-(3,4-dimethoxyphenyl)-3-isopropyl-1H-indol-5-yl)-N4-(3-(dimethylamino)propyl)-N4-methylcyclohexane-1,4-diamine], the results for the IC50 at human TLR9 and against human TLR7 were 477 nM and 252 nM, respectively.
As to `COc1ccc(-c2[nH]c3ccc(NC4CCC(N5CCC(N(C)C)CC5)CC4)cc3c2C(C)C)cc1OC` (stereo not shown) [Example 46, 2-(3,4-dimethoxyphenyl)-N-(4-(4-(dimethylamino)piperidin-1-yl)cyclohexyl)-3-isopropyl-H-indol-5-amine], the IC50 turned out to be 817 nM against human TLR9 and 1050 nM against human TLR7.
As for `COc1ccc(-c2[nH]c3ccc(NC4CCC(NCCN5CCOCC5)CC4)cc3c2C(C)C)cc1OC` (stereo not shown) [Example 48, N1-(2-(3,4-dimethoxyphenyl)-3-isopropyl-1H-indol-5-yl)-N4-(2-morpholinoethyl)cyclohexane-1,4-diamine], the IC50 against human TLR9 was determined as 1250 nM; at human TLR7 it was 322 nM.
Turning to `COc1ccc(-c2[nH]c3ccc(NC4CCC(N5CCN(C(C)(C)C)CC5)CC4)cc3c2C(C)C)cc1OC` (stereo not shown) [Example 49, N-(4-(4-(tert-butyl)piperazin-1-yl)cyclohexyl)-2-(3,4-dimethoxyphenyl)-3-isopropyl-1H-indol-5-amine], the values for the IC50 against human TLR9 and against human TLR7 were 512 nM and 538 nM, respectively.
